Results reported in patent US20130216553A1, “Compositions and Methods for Modulation and Detection of Immune and Inflammatory Responses” (priority 2010, published 2013).
* marks the point of attachment. Palmitoyl = CCCCCCCCCCCCCCCC(=O)*

Legend:
[1] = system: Bone marrow-derived DCs from wild-type (WT) mice; test: Stimulation of bone marrow dendritic cells from wild-type mice (IL-6 ELISA, surface activation markers); format: cell-based, mouse; settings: WT BMDCs, plate-bound LPS (1 μg), MMP (10 μg) or PE DHC (2.5 μg), supernatants after 18 hrs
Procedure: (§1) Bone marrow cells from C57BL/6 and TLR2^−/− mice were cultured at 2×10^5 cells/ml in RPMI containing 10% FCS, 2-ME, and 20 ng/ml recombinant murine GM-CSF for 9 days. Bone marrow DCs (BMDCs) were harvested at Day 9 and were greater than 80% CD11c+. LPS (1 μg), MMP (10 μg) (a bacterial lipoprotein and known TLR-2 ligand: Palmitoyl-Cys ((RS)-2,3-di(palmitoyloxy)-propyl)-Ser-Ser-Asn-Ala-OH(pam3-Cys-Ser-Ser Asn-Ala-OH) (Bachem H-9460), PE DHC (2.5 μg) or 70% EtOH, all in 20 ul volumes, were allowed to dry in the wells of a 24-well plate overnight prior to the addition of BMDCs. BMDCs were cultured in the ligand-bound 24-well plates at 1×10^6 cells/ml in RPMI containing GM-CSF. After 18 hrs, culture supernatants were harvested and tested for IL-6 via ELISA.
(§2) The effects of PE DHC on antigen presenting cell (APC) activation in vitro were examined. Dendritic cells (BMDCs) (>85% CD11c+) were derived from the bone marrow of WT or TLR2^−/− mice and cultured either alone or with EtOH, LPS, MMP (a TLR2 ligand), or PE DHC. After 18 Ins supernatants were assayed for IL-6. […] BMDCs were also assayed for expression of the surface activation markers B7.2 and MHC class II.

[2] = system: Bone marrow-derived DCs from TLR2^−/− mice; test: Stimulation of bone marrow dendritic cells from TLR2^−/− mice (IL-6 ELISA, surface activation markers); format: cell-based, mouse; settings: TLR2^−/− BMDCs, plate-bound LPS (1 μg), MMP (10 μg) or PE DHC (2.5 μg), supernatants after 18 hrs
Procedure: as §1, §2

Palmitoyl-Cys ((RS)-2,3-di(palmitoyloxy)-propyl)-Ser-Ser-Asn-Ala-OH ({Palmitoyl-Cys((RS)-2,3-di(palmitoyloxy)-propyl)}-SSNA-OH) [MMP, a bacterial lipoprotein and known TLR-2 ligand (Bachem H-9460)]
IL-6 secretion [1]: resulted in IL-6 secretion | IL-6 secretion [2]: did not
